According to PubChem BioAssay AID2060886 (Molecular Pharmacology Branch, DTP, NCI, 2025):

System: 653999-131-R-J2-PDC complex spheroids, growth inhibition
Experiment: Anticancer human tumor 653999-131-R-J2-PDC patient-derived lung adenocarcinoma cell line growth inhibition [RAS]
Conditions: for IC50: curve of first compound; for viability, T/C: stronger effect = lower value
Method in brief: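 Agents were tested in combination matrices in half-log decrements from a top concentration at or near clinical Cmax (10 microM if undetermined). Targets were multi-cell spheroids of tumour lines plus HUVEC and MSC stromal cells.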
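Note: spheroids exposed to the agents for seven days before the readout.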

In the case of `CC(=O)OC12COC1CC(O)C1(C)C(=O)C(O)C3=C(C)C(OC(=O)C(O)C(NC(=O)OC(C)(C)C)c4ccccc4)CC(O)(C(OC(=O)c4ccccc4)C21)C3(C)C` (centres undefined) + C=CC(=O)N1CCN(c2nc(OCC3CCCN3C)nc3c(F)c(-c4nc(N)cc(C)c4C(F)(F)F)c(Cl)cc23)C(C)C1, the IC50 (second compound 0.00316 µM) is reported as over 10 µM, the IC50 (second compound 0.01 µM) is reported as over 10 µM and the IC50 (second compound 0.0316 µM) is reported as over 10 µM. It also gave an IC50 (second compound 0.1 µM) of over 10 µM, an IC50 (second compound 0.316 µM) of over 10 µM and an IC50 (second compound 1 µM) of over 10 µM. It also gave a viability, T/C (second compound 0.00316 µM, first compound 0.0316 µM) of 56.6%, a viability, T/C (second compound 0.00316 µM, first compound 0.1 µM) of 48.1% and a viability, T/C (second compound 0.00316 µM, first compound 0.316 µM) of 56%. The viability, T/C (second compound 0.00316 µM, first compound 1 µM) was 58.8%, the viability, T/C (second compound 0.00316 µM, first compound 3.16 µM) was 61.7% and the viability, T/C (second compound 0.00316 µM, first compound 10 µM) was 68%. It also gave a viability, T/C (second compound 0.01 µM, first compound 0.0316 µM) of 63.7%, a viability, T/C (second compound 0.01 µM, first compound 0.1 µM) of 54.2% and a viability, T/C (second compound 0.01 µM, first compound 0.316 µM) of 57.9%. It also gave a viability, T/C (second compound 0.01 µM, first compound 1 µM) of 67.5%, a viability, T/C (second compound 0.01 µM, first compound 3.16 µM) of 62.6% and a viability, T/C (second compound 0.01 µM, first compound 10 µM) of 76%. The viability, T/C (second compound 0.0316 µM, first compound 0.0316 µM) was 58.4%, the viability, T/C (second compound 0.0316 µM, first compound 0.1 µM) was 59.2% and the viability, T/C (second compound 0.0316 µM, first compound 0.316 µM) was 49.2%. For the same compound, the viability, T/C (second compound 0.0316 µM, first compound 1 µM) was 58.7%, the viability, T/C (second compound 0.0316 µM, first compound 3.16 µM) was 73.4% and the viability, T/C (second compound 0.0316 µM, first compound 10 µM) was 66.5%. For the same compound, the viability, T/C (second compound 0.1 µM, first compound 0.0316 µM) was 59.5%, the viability, T/C (second compound 0.1 µM, first compound 0.1 µM) was 57.2% and the viability, T/C (second compound 0.1 µM, first compound 0.316 µM) was 53.7%. For the same compound, the viability, T/C (second compound 0.1 µM, first compound 1 µM) was 56.2%, the viability, T/C (second compound 0.1 µM, first compound 3.16 µM) was 72.5% and the viability, T/C (second compound 0.1 µM, first compound 10 µM) was 93.3%. For the same compound, the viability, T/C (second compound 0.316 µM, first compound 0.0316 µM) was 55.7%, the viability, T/C (second compound 0.316 µM, first compound 0.1 µM) was 61.3% and the viability, T/C (second compound 0.316 µM, first compound 0.316 µM) was 54.5%. It also gave a viability, T/C (second compound 0.316 µM, first compound 1 µM) of 63.5%, a viability, T/C (second compound 0.316 µM, first compound 3.16 µM) of 79.8% and a viability, T/C (second compound 0.316 µM, first compound 10 µM) of 84.1%. For the same compound, the viability, T/C (second compound 1 µM, first compound 0.0316 µM) was 53%, the viability, T/C (second compound 1 µM, first compound 0.1 µM) was 57.5% and the viability, T/C (second compound 1 µM, first compound 0.316 µM) was 62.3%. It also gave a viability, T/C (second compound 1 µM, first compound 1 µM) of 60.3%, a viability, T/C (second compound 1 µM, first compound 3.16 µM) of 62.9% and a viability, T/C (second compound 1 µM, first compound 10 µM) of 82.4%.

`CC1(O)CCCC1n1c(=O)c(C(F)F)cc2cnc(NC3CCN(S(C)(=O)=O)CC3)nc21` (centres undefined) + CCn1c(-c2cc(N3CCN(C)CC3)cnc2C(C)OC)c2c3cc(ccc31)-c1csc(n1)CC(NC(=O)C1CC1C)C(=O)N1CCCC(N1)C(=O)OCC(C)(C)C2 was tested, and the IC50 (second compound 0.000949 µM) was 8.4 µM, the IC50 (second compound 0.003 µM) was 0.0579 µM and the IC50 (second compound 0.00949 µM) was under 0.0316 µM. The IC50 (second compound 0.03 µM) was under 0.0316 µM, the IC50 (second compound 0.0949 µM) was under 0.0316 µM and the IC50 (second compound 0.3 µM) was under 0.0316 µM. The viability, T/C (second compound 0.000949 µM, first compound 0.0316 µM) was 67.8%, the viability, T/C (second compound 0.000949 µM, first compound 0.1 µM) was 48.4% and the viability, T/C (second compound 0.000949 µM, first compound 0.316 µM) was 57.4%. It also gave a viability, T/C (second compound 0.000949 µM, first compound 1 µM) of 49%, a viability, T/C (second compound 0.000949 µM, first compound 3.16 µM) of 73% and a viability, T/C (second compound 0.000949 µM, first compound 10 µM) of 37.7%. It also gave a viability, T/C (second compound 0.003 µM, first compound 0.0316 µM) of 52.4%, a viability, T/C (second compound 0.003 µM, first compound 0.1 µM) of 49.5% and a viability, T/C (second compound 0.003 µM, first compound 0.316 µM) of 40.1%. For the same compound, the viability, T/C (second compound 0.003 µM, first compound 1 µM) was 49.9%, the viability, T/C (second compound 0.003 µM, first compound 3.16 µM) was 47.2% and the viability, T/C (second compound 0.003 µM, first compound 10 µM) was 38.5%. The viability, T/C (second compound 0.00949 µM, first compound 0.0316 µM) was 43%, the viability, T/C (second compound 0.00949 µM, first compound 0.1 µM) was 28.5% and the viability, T/C (second compound 0.00949 µM, first compound 0.316 µM) was 28.5%. It also gave a viability, T/C (second compound 0.00949 µM, first compound 1 µM) of 28.1%, a viability, T/C (second compound 0.00949 µM, first compound 3.16 µM) of 39% and a viability, T/C (second compound 0.00949 µM, first compound 10 µM) of 29.1%. For the same compound, the viability, T/C (second compound 0.03 µM, first compound 0.0316 µM) was 36.6%, the viability, T/C (second compound 0.03 µM, first compound 0.1 µM) was 23.9% and the viability, T/C (second compound 0.03 µM, first compound 0.316 µM) was 25.8%. The viability, T/C (second compound 0.03 µM, first compound 1 µM) was 24.9%, the viability, T/C (second compound 0.03 µM, first compound 3.16 µM) was 30.7% and the viability, T/C (second compound 0.03 µM, first compound 10 µM) was 20%. For the same compound, the viability, T/C (second compound 0.0949 µM, first compound 0.0316 µM) was 27.2%, the viability, T/C (second compound 0.0949 µM, first compound 0.1 µM) was 20.3% and the viability, T/C (second compound 0.0949 µM, first compound 0.316 µM) was 18.8%. It also gave a viability, T/C (second compound 0.0949 µM, first compound 1 µM) of 19.4%, a viability, T/C (second compound 0.0949 µM, first compound 3.16 µM) of 26.7% and a viability, T/C (second compound 0.0949 µM, first compound 10 µM) of 24.7%. It also gave a viability, T/C (second compound 0.3 µM, first compound 0.0316 µM) of 19.2%, a viability, T/C (second compound 0.3 µM, first compound 0.1 µM) of 18.5% and a viability, T/C (second compound 0.3 µM, first compound 0.316 µM) of 25.2%. For the same compound, the viability, T/C (second compound 0.3 µM, first compound 1 µM) was 20.8%, the viability, T/C (second compound 0.3 µM, first compound 3.16 µM) was 20.3% and the viability, T/C (second compound 0.3 µM, first compound 10 µM) was 21%.
